Paper PMC3855964, “Cysteine-10 on 17β-Hydroxysteroid Dehydrogenase 1 Has Stabilizing Interactions in the Cofactor Binding Region and Renders Sensitivity to Sulfhydryl Modifying Chemicals” (International Journal of Cell Biology, 2013)
Residue numbers refer to the chain shown, from its start. Where two headings read alike, the source gives them in different places.

Tests used:
[1] = target: T1, Cys^10Ser mutant 17β-HSD1 (Homo sapiens, UniProt P14061, C11S); experiment: Cys^10Ser mutant 17β-HSD1 reductase activity (estrone to estradiol) in lysates of transfected HEK-293 cells; assay type: biochemical
T1 construct: expressed in transfected cells; host or cells: HEK-293 (transient calcium phosphate transfection; cell lysates used)
T1 sequence (P14061 1-328 C11S): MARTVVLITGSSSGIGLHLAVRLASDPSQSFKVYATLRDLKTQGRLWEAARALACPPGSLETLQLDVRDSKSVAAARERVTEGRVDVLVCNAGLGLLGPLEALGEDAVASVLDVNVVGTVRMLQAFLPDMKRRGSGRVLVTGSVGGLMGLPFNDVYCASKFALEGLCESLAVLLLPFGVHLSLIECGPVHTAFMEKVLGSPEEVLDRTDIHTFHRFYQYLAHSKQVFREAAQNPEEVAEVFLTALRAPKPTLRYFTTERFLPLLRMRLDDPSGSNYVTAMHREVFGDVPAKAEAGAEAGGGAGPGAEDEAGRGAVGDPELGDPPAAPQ
Method: In order to facilitate detection, an octahistidine tag was added to the C-terminus of human 17β-HSD1 by PCR amplification using oligonucleotide primers containing the tag-coding sequence (forward primer 5′-[…]-3′, reverse primer 5′-[…]-3′). […] The substitution of Cys^10 to serine was introduced into the C-terminal histidine-tagged 17β-HSD1 cDNA in Bluescript vector by site-directed mutagenesis using the forward primer 5′-[…]-3′ and the reverse primer 5′-[…]-3′ according to the Quick Change mutagenesis kit (Stratagene, Amsterdam, The Netherlands), followed by subsequent recloning into pcDNA3.1 expression plasmid.
(§1) To determine 17β-HSD1 activity, HEK-293 cells were transfected by the calcium phosphate precipitation method. Cells were harvested 48 h after transfection, washed twice with phosphate-buffered saline (PBS), and centrifuged for 4 min at 150 ×g. Supernatants were removed and the cell pellets were quick-frozen in a dry ice-ethanol bath and stored at −80°C. The reductase activity of 17β-HSD1 was measured by incubation of cell lysates for 10 min at 37°C in the presence of 200 nM radiolabeled estrone and 400 μM NADPH in a reaction buffer containing 20% glycerol, 1 mM EDTA, and 50 mM potassium phosphate, pH 7.4. Inhibitors were diluted from stock solutions in dimethylsulfoxide (DMSO) and immediately used in the assays.
(§2) For determination of enzyme kinetics, estrone concentrations ranging from 10 to 800 nM were used. Data (mean ± SD) were obtained from three independent experiments and were calculated using the Data Analysis Toolbox (Elsevier MDL, Allschwil, Switzerland).

human 17β-HSD1 = target: T2, human 17β-HSD1 (Homo sapiens, UniProt P14061); experiment: 17β-HSD1 reductase activity (estrone to estradiol) in lysates of transfected HEK-293 cells; assay type: biochemical; conditions: for IC50 for 17β-HSD1 compared with those obtained for 11β-HSD2: simultaneous incubation with substrate and inhibitor, 11β-HSD2 values from ref 20
T2 construct: expressed in transfected cells; host or cells: HEK-293 (transient calcium phosphate transfection; cell lysates used)
T2 sequence (P14061 1-328): T1 sequence (P14061 1-328 C11S) with S11C
Method: as §1, §2

[2] = simultaneous incubation of lysates with 200 nM estrone and inhibitor, 400 μM NADPH, 10 min, 37°C, read-out: IC50

Molecule | IC50 (human 17β-HSD1; [2]) | IC50 for 17β-HSD1 compared with those obtained for 11β-HSD2 (human 17β-HSD1) | other results
CCN1C(=O)C=CC1=O [NEM, N-ethylmaleimide] | 22 ± 6 µM | – | inhibition of wild-type enzyme relative to mutant Cys^10Ser ([1]; cell lysates, data not shown): approximately two times stronger; 17β-HSD1 activity after preincubation with inhibitor (human 17β-HSD1; preincubation of lysates with 20 μM NEM for 1 h prior to the addition of estrone, data not shown): completely abolished; effect of preincubation with NADPH on inhibition (human 17β-HSD1; preincubation with NADPH for 15 min, NEM 60 μM, estrone 200 nM, NADPH 400 μM, concentration dependent): protected from inhibition
CCN(CC)C(=S)SSC(=S)N(CC)CC [disulfiram] | 8 ± 1 µM | about two orders of magnitude higher | –
C[C@]12CC[C@@H]3c4ccc(O)cc4CC[C@H]3[C@@H]1CCC2=O [estrone] | – | – | K m ([1]; Cys^10Ser mutant, estrone 10 to 800 nM, 400 μM NADPH): 0.065 ± 0.003 µM; V max ([1]; Cys^10Ser mutant, estrone 10 to 800 nM, 400 μM NADPH, normalized to protein expression): 124 ± 3 nmol/h/mg; K m (human 17β-HSD1; wild-type, estrone 10 to 800 nM, 400 μM NADPH): 0.043 ± 0.006 µM; V max (human 17β-HSD1; wild-type, estrone 10 to 800 nM, 400 μM NADPH, normalized to protein expression): 110 ± 5 nmol/h/mg
CN(C)C(=S)SSC(=S)N(C)C [thiram] | 21 ± 4 µM | about two orders of magnitude higher | –
S=C(S)NCCNC(=S)S [zineb] | – | about two orders of magnitude higher | IC50 (human 17β-HSD1): 24 ± 3 µM
maneb | 25 ± 3 µM | about two orders of magnitude higher | –
